The record followed here is patent US20210115018A1, “PIPERIDINE COMPOUNDS AS COVALENT MENIN INHIBITORS” (THE REGENTS OF THE UNIVERSITY OF MICHIGAN, priority 2018, published 2021).

Test [1] has as its target T1, menin protein (Homo sapiens, UniProt O00255).
T1 sequence (O00255 1-610): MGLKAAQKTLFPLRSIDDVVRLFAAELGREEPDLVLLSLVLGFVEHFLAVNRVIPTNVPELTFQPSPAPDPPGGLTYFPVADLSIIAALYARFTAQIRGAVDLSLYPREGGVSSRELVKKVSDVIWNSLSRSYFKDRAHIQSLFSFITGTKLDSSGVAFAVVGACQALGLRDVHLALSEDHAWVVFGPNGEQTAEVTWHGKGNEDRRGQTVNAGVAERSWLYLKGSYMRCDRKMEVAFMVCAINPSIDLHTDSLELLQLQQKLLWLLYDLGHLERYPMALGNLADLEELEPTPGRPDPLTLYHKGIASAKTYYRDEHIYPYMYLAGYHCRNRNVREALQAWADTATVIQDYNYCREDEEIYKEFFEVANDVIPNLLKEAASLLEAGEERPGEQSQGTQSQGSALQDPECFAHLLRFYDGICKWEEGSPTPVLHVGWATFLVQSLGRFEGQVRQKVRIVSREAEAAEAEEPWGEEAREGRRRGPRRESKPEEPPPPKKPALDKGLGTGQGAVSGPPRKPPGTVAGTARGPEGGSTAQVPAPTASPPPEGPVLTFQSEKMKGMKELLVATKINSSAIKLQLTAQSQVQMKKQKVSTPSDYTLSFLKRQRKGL
The experiment in a line: Fluorescence polarization (FP) competitive binding assay, menin binding affinity. As to conditions: FP competition with FAM-MM2 probe 2 nM, menin 4 nM, 30 minutes room temperature. As to the method: A fluorescence polarization (FP) competitive binding assay was used to determine the binding affinities of representative menin inhibitors. A FAM labeled fluorescent probe was designed and synthesized based on a MLL1 peptide (FAM-MM2). Equilibrium dissociation constant (Kd) value of FAM-MM2 to menin protein was determined from protein saturation experiments by monitoring the total fluorescence polarization of mixtures composed with the fluorescent probe at a fixed concentration and the protein with increasing concentrations up to full saturation. Serial dilutions of the protein were mixed with FAM-MM2 to a final volume of 200 μl in the assay buffer (PBS with 0.02% Bovine γ-Globulin and 4% DMSO. 0.01% Triton X-100 was added right before assays). Final FAM-MM2 concentration was 2 nM. Plates were incubated at room temperature for 30 minutes with gentle shaking to assure equilibrium. FP values in millipolarization units (mP) were measured using the Infinite M-1000 plate reader (Tecan U.S., Research Triangle Park, N.C.) in Microfluor 1 96-well, black, v-bottom plates (Thermo Scientific, Waltham, Mass.) at an excitation wavelength of 485 nm and an emission wavelength of 530 nm.
The IC50 of representative Compounds of the Disclosure, see Table 3, were determined in a competitive binding experiment. Mixtures of 5 μl of the tested compounds in DMSO and 195 μl of preincubated protein/probe complex solution in the assay buffer were added into assay plates which were incubated at room temperature for 30 minutes with gentle shaking. Final concentration of the menin protein was 4 nM, and final probe concentration is 2 nM. Negative controls containing protein/probe complex only (equivalent to 0% inhibition), and positive controls containing only free probes (equivalent to 100% inhibition), were included in each assay plate. FP values were measured as described above. IC50 values were determined by nonlinear regression fitting of the competition curves.

Test [2] has as its system MV4-11. The experiment in a line: 7-day proliferation assay (WST-8), cell growth inhibition. The test is classed as cell-based. As to conditions: Homo sapiens, MV4-11, 168 h, MV4-11 cells, 7 days. As to the method:
The effect of representative Compounds of the Disclosure on cell viability was determined in a 7-day proliferation assay. Cells were maintained in the appropriate culture medium with 10% FBS at 37° C. and an atmosphere of 5% CO2.
Cells were seeded in 96-well flat bottom (Corning COSTAR, Corning, NY, cat#3595) at a density of 2,000-3,000 cells/well in 100 μl of culture medium. Compounds were serially diluted in the appropriate medium, and […] the diluted compounds were added to the appropriate wells of the cell plate. After the addition of compounds, the cells were incubated at 37° C. in an atmosphere of 5% CO2 for 7 days. Cell viability was determined using the WST (2-(2-methoxy-4-nitrophenyl)-3-(4-nitrophenyl)-5-(2,4-disulfophenyl)-2H-tetrazolium, monosodium salt) Cell Counting-8 Kit (Dojindo Molecular Technologies, Inc., Rockville, Md.) according to the manufacturers' instructions.
WST-8 reagent was added to each well at a final concentration of 10% (v/v), and then the plates were incubated at 37° C. for 1-2 hours for color development. The absorbance was measured at 450 nm using a SPECTRAmax PLUS plate reader (Molecular Devices, Sunnyvale, Calif.). The readings were normalized to the DMSO-treated cells and the half maximal inhibitory concentration (IC50) was calculated by nonlinear regression (four parameters sigmoid fitted with variable slope, least squares fit, and no constraint) analysis using the GraphPad Prism 5 software (GraphPad Software, La Jolla, Calif.).
(In general: Tetrazolium dyes change colour on reduction, which living cells bring about.)

For orientation: IC50 means the midpoint of a concentration-inhibition curve. With `C=CC(=O)N1CC(S(=O)(=O)c2ccc(N3CC(CN4CCC([C@@](CN(C)C)(c5cccc(F)c5)[C@H]5CCC[C@@H]5NC(=O)OC)CC4)C3)cc2)C1` [Cpd. No. 1, methyl ((1S,2R)-2-((S)-1-(1-((1-(4-((1-acryloylazetidin-3-yl)sulfonyl)phenyl)azetidin-3-yl)methyl)piperidin-4-yl)-2-(dimethylamino)-1-(3-fluorophenyl)ethyl)cyclopentyl)carbamate], the IC50 in test [1] amounted to 0.002 µM.
`COC(=O)N[C@H]1CCC[C@@H]1[C@](CN1CCCCC1)(c1cccc(F)c1)C1CCN(CC2CN(c3ccc(S(=O)(=O)C4CN(C(=O)/C=C/CN(C)C)C4)cc3)C2)CC1` [Cpd. No. 4, methyl ((1S,2R)-2-((S)-1-(1-((1-(4-((1-((E)-4-(dimethylamino)but-2-enoyl)azetidin-3-yl)sulfonyl)phenyl)azetidin-3-yl)methyl)piperidin-4-yl)-1-(3-fluorophenyl)-2-(piperidin-1-yl)ethyl)cyclopentyl)carbamate]: in test [1], the IC50 is 0.002 µM.
In the case of `COC(=O)N[C@H]1CCC[C@@H]1[C@](CN1CCOCC1)(c1cccc(F)c1)C1CCN(CC2CN(c3ccc(S(=O)(=O)C4CN(C(=O)/C=C/CN(C)C)C4)cc3)C2)CC1` [Cpd. No. 6, methyl ((1S,2R)-2-((S)-1-(1-((1-(4-((1-((E)-4-(dimethylamino)but-2-enoyl)azetidin-3-yl)sulfonyl)phenyl)azetidin-3-yl)methyl)piperidin-4-yl)-1-(3-fluorophenyl)-2-morpholinoethyl)cyclopentyl)carbamate], in test [1], the 50% inhibitory concentration (IC50) turned out to be 0.002 µM.
Still for that read-out and setting: the same measure for `COC(=O)N[C@H]1CCC[C@@H]1[C@](CN1CCC(C)(O)CC1)(c1cccc(F)c1)C1CCN(CC2CN(c3ccc(S(=O)(=O)C4CN(C(=O)/C=C/CN(C)C)C4)cc3)C2)CC1` [Cpd. No. 8, methyl ((1S,2R)-2-((S)-1-(1-((1-(4-((1-((E)-4-(dimethylamino)but-2-enoyl)azetidin-3-yl)sulfonyl)phenyl)azetidin-3-yl)methyl)piperidin-4-yl)-1-(3-fluorophenyl)-2-(4-hydroxy-4-methylpiperidin-1-yl)ethyl)cyclopentyl)carbamate]: 0.002 µM; for `C=C(CN(C)C)C(=O)N1CC(S(=O)(=O)c2ccc(N3CC(CN4CCC([C@@](CN5CCC5)(c5cccc(F)c5)[C@H]5CCC[C@@H]5NC(=O)OC)CC4)C3)cc2)C1` [Cpd. No. 10, methyl ((1S,2R)-2-((S)-2-(azetidin-1-yl)-1-(1-((1-(4-((1-(2-((dimethylamino)methyl)acryloyl)azetidin-3-yl)sulfonyl)phenyl)azetidin-3-yl)methyl)piperidin-4-yl)-1-(3-fluorophenyl)ethyl)cyclopentyl)carbamate]: 0.003 µM.
On to `CC#CC(=O)N1CC(S(=O)(=O)c2ccc(N3CC(CN4CCC([C@@](CNC(C)=O)(c5cccc(F)c5)[C@H]5CCC[C@@H]5NC(=O)OC)CC4)C3)cc2)C1` [compound 130], for which the IC50 in test [2] is less than 10 nM.
In the case of `C=CC(=O)N1CCCC(S(=O)(=O)c2ccc(N3CC(F)(CN4CCC([C@@](CNC(C)=O)(c5cccc(F)c5)[C@H]5CCC[C@@H]5NC(=O)OC)CC4)C3)cc2)C1` (some centres unmarked) [compound 149], in test [2], the IC50 is less than 500 nM.
For the compound `CC#CC(=O)N1CC(S(=O)(=O)c2ccc(N3CC(CN4CCC([C@@](CNC(C)=O)(c5cccc(F)c5)[C@H]5CCC[C@@H]5NC(=O)OC)CC4)C3)cc2CN2CC(F)C2)C1` [compound 164], the half-maximal inhibitory concentration (IC50) in test [2] is less than 10 nM.
Take `CC#CC(=O)N1CC(S(=O)(=O)c2ccc(N3CC(F)(CN4CCC([C@@](CNC(C)=O)(c5cccc(F)c5)[C@H]5CCC[C@@H]5NC(=O)OC)CC4)C3)cc2CN2CC(F)C2)C1` [compound 178]: in test [2], the half-maximal inhibitory concentration (IC50) is less than 50 nM.
As to `C=CC(=O)N1CCOC[C@@H](S(=O)(=O)c2ccc(N3CC(F)(CN4CCC([C@@](CNC(=O)OC)(c5cccc(F)c5)[C@H]5CCC[C@@H]5NC(=O)OC)CC4)C3)c(F)c2)C1` [compound 180], the concentration for half-maximal inhibition (IC50) in test [2] was less than 100 nM.
`CC#CC(=O)N1CCC[C@H](S(=O)(=O)c2ccc(N3CC(F)(CN4CCC([C@@](CN5CCC5)(c5cccc(F)c5)[C@H]5CCC[C@@H]5NC(=O)OC)CC4)C3)c(F)c2)C1` [compound 192] displayed an IC50 in test [2] of less than 10 nM.
As to `CC#CC(=O)N1CC[C@H](S(=O)(=O)c2ccc(N3CC(F)(CN4CCC([C@@](CN5CCC5)(c5cccc(F)c5)[C@H]5CCC[C@@H]5NC(=O)OC)CC4)C3)c(F)c2)C1` [compound 194], the half-inhibitory concentration (IC50) in test [2] was less than 500 nM.
Turning to `C=CC(=O)N1CCC[C@@H](S(=O)(=O)c2ccc(N3CC(O)(CN4CCC([C@@](CN5CCC5)(c5cccc(F)c5)[C@H]5CCC[C@@H]5NC(=O)OC)CC4)C3)cc2)C1` [compound 195], the half-inhibitory concentration (IC50) in test [2] is less than 10 nM.
On to `C=CC(=O)N1CCC[C@@H](S(=O)(=O)c2ccc(N3CC(CF)(CN4CCC([C@@](CN5CCC5)(c5cccc(F)c5)[C@H]5CCC[C@@H]5NC(=O)OC)CC4)C3)cc2)C1` [compound 196], for which the half-inhibitory concentration (IC50) in test [2] was less than 100 nM.
In test [2], `C=CC(=O)N1CCC[C@@H](S(=O)(=O)c2ccc(N3CC(CN4CCC([C@@](CN5CCC5)(c5cccc(F)c5)[C@H]5CCC[C@@H]5NC(=O)OC)CC4)C3)cc2)C1` [compound 197] returned a half-maximal inhibitory concentration (IC50) of less than 10 nM.
In turn, `C=CC(=O)N1CCC[C@@H](S(=O)(=O)c2ccc(N3CC(CN4CCC([C@@](C#N)(c5cccc(F)c5)[C@H]5CCC[C@@H]5NC(=O)OC)CC4)C3)cc2)C1` [compound 201] gave a 50% inhibitory concentration (IC50) in test [2] of less than 500 nM.
The compound `CC#CC(=O)N1CC[C@@H](S(=O)(=O)c2ccc(N3CC(O)(CN4CCC([C@@](CN5CCC5)(c5cccc(F)c5)[C@H]5CCC[C@@H]5NC(=O)OC)CC4)C3)c(F)c2)C1` [compound 202] came in with an IC50 in test [2] of less than 10 nM.
`CC#CC(=O)N1CC(S(=O)(=O)c2ccc(N3CC(O)(CN4CCC([C@@](CN5CCC5)(c5cccc(F)c5)[C@H]5CCC[C@@H]5NC(=O)OC)CC4)C3)cc2)C1` [compound 203] returned an IC50 in test [2] of less than 10 nM.
Take `COC(=O)N[C@H]1CCC[C@@H]1[C@](CN1CCC1)(c1cccc(F)c1)C1CCN(CC2CN(c3ccc(S(=O)(=O)[C@@H]4CCCN(C(=O)/C=C/CN5CCCCC5)C4)cc3)C2)CC1` [compound 204]: the concentration for half-maximal inhibition (IC50) in test [2] is less than 50 nM.
In test [2], `CC#CC(=O)N1CC(S(=O)(=O)c2ccc(N3CC(O)(CN4CCC([C@@](CNC(C)=O)(c5cccc(F)c5)[C@H]5CCC[C@@H]5NC(=O)OC)CC4)C3)cc2)C1` [compound 207] displayed an IC50 of less than 100 nM.
Still for that read-out and setting: the same measure for `C=CC(=O)N1CC[C@@H](S(=O)(=O)c2ccc(N3CC(CN4CCC([C@@](CN5CCC5)(c5cccc(F)c5)[C@H]5CCC[C@@H]5NC(=O)OC)CC4)C3)cc2CN2CC(F)C2)C1` [compound 209]: less than 50 nM; for `CC#CC(=O)N1CC[C@@H](S(=O)(=O)c2ccc(N3CC(CN4CCC([C@@](CN5CCC5)(c5cccc(F)c5)[C@H]5CCC[C@@H]5NC(=O)OC)CC4)C3)cc2CN2CC(F)C2)C1` [compound 210]: less than 50 nM; for `C=CC(=O)N1CCC[C@@H](S(=O)(=O)c2ccc(N3CC(C)(CN4CCC([C@@](CN5CCC5)(c5cccc(F)c5)[C@H]5CCC[C@@H]5NC(=O)OC)CC4)C3)cc2)C1` [compound 211]: less than 50 nM.
